SMILES | melting point
Cc1cc(C)c(=O)n(C(C(=O)NS(=O)(=O)c2ccc(C(C)C)cc2)c2ccc3c(c2)OCO3)n1 (stereo not given) | 105 °C
Cc1ncccc1-c1nc(C(F)(F)F)cn1-c1ccc(S(N)(=O)=O)cc1 | 235 to 237 °C
Cc1c(O)c(=O)ccn1C(C)C | 239 to 242 °C
O=C(CCc1cnoc1-c1ccccc1)Nc1cnccn1 | 163 to 164 °C
COc1ccc(OCCCO)cc1 | 56 to 60 °C
CC(=O)N1CCN=C1C(O)(c1ccccc1)c1ccccn1 (stereo not given) | 150 to 153 °C
CCCCCCCN(CCN1CCN(CCCSc2nc3ccccc3o2)CC1)C(=O)Nc1c(C(C)C)cccc1C(C)C | 93 to 94 °C
COc1cc2ccc(CCOS(C)(=O)=O)cc2cc1OC | 112 to 113 °C
N#CC1(CCc2ccccc2)CCCCCN1C(=O)c1ccccc1 (stereo not given) | 116 to 118 °C
CCOc1cc(O)c(C(=O)C=Cc2ccc(OC)cc2)c(OC)c1 | 122 °C
O=C(OCc1cc(OCCCBr)c(OCCCBr)c(OCCCBr)c1)c1ccccc1 | 53 to 54 °C
COc1ccccc1Cc1ccc2[nH]c3cnn(C)c3c(=O)c2c1 | 255 °C
COC(=O)NC(=N)N(C(=O)OC)c1c(Cc2ccccc2)c[nH]c1C(=O)OC | 158 to 160 °C
OC1CSC(Oc2ccc(-c3cccnc3F)nc2)C(O)C1O (stereo not given) | 181 °C
Cc1noc(C)c1C(=O)Nc1ccc(-n2nc(C3CC3)cc2C2CC2)cc1 | 115 to 119 °C
Cc1oc(-c2cccs2)nc1COc1ccc(CCCn2ccnc2)cc1 | 102 to 103 °C
CC12C=CCC1C1CCC3=CC(=O)CCC3C1CC2 (stereo not given) | 67 to 71 °C
Cc1ccc(C(=O)SCC2C(=O)OCC2c2ccc(Cl)cc2)cc1 (stereo not given) | 99 to 100 °C
Nc1nc(-c2cc(Cl)ccc2Cl)nc(N2CCC(O)(c3ccccc3)CC2)n1 | 176 to 178 °C
CC12CCC(OC(=O)c3ccc([N+](=O)[O-])cc3)CC1=CCC1C2CCC2(C)C(=NO)CCC12 (stereo not given) | 185 to 188 °C
CN1C(=O)C(Cc2c[nH]c3c(Cl)cc(S(C)(=O)=O)cc23)NC1=S (stereo not given) | 242 to 245 °C
Cc1ccc(CN(C(=O)Nc2c(C(C)C)cccc2C(C)C)c2ccc(C(C)C)cc2)c(C)c1 | 100 °C
Oc1ccc(-c2cc3cc(Br)ccc3o2)cc1 | 228 to 229 °C
Cc1ccn(-c2ccc(S(C)(=O)=O)cc2)c1-c1ccc(F)cc1 | 157 to 158 °C
CC(=O)c1cccc(Oc2ncccc2C(=O)NCC2CCC(C(C)O)CC2)c1 (stereo not given) | 101 to 103 °C

SMILES | melting point
CC(C)(C)C(=O)Oc1cc(C=CC(=O)c2ccccc2)cc([N+](=O)[O-])c1O | 148 to 150 °C
CCn1nc(OCC(=O)C(C)(C)C)c(-c2ccc(F)cc2)c1-c1ccc(S(N)(=O)=O)cc1 | 196 to 198 °C
NC(=O)c1cccc(NC(=O)Cc2cccc(Br)c2)c1 | 202 °C
C[C@@H](O[C@H]1CCCN(Cc2n[nH]c(=O)[nH]2)[C@H]1c1ccccc1)c1cccc(C(F)(F)F)c1 | 143 to 145 °C
CCS(=O)(=O)c1ccc(-c2coc3ccc(-c4nnc(C)o4)nc23)cc1 | 246 to 247 °C
CCOC(=O)CCc1cc2ccccc2c(-c2ccccc2)n1 | 109 °C
Clc1ccc(OC2CN(C(c3ccccc3)c3ccccc3)C2)cc1Cl | 114 to 115 °C
COc1ccccc1OCC1SCCN1C(=S)CC(C)=O (stereo not given) | 89 to 91 °C
NC(=O)c1ccc(F)c2c1CC(N)CO2 (stereo not given) | 229 °C
CS(=O)(=O)Nc1cnccc1CCCOc1cccnc1Oc1cccc(Cl)c1 | 131 to 133 °C
Cc1cccc2c(=O)cc(N3CCOCC3)oc12 | 148 °C
CC(C)(CCl)c1cc(Cl)nnc1Br | 79 to 81 °C
O=NCNC1=Nc2ccc(Cl)cc2C(c2ccccc2F)=NC1 | 170 to 172 °C
Cc1nc(-n2cnn(CCOCc3ccc(F)cc3)c2=O)sc1C(=O)NCc1cccnc1 | 235 to 236 °C
CC(O)c1cccc(NC(=O)NCC(=O)N(c2ccccc2)C(C)C(=O)N2CCCc3ccccc32)c1 (mixture of isomers) | 170 °C
Cc1cc(CO)c(C(=O)O)c(S)n1 | > 270 °C
CN1C(=O)C2c3c([nH]c4ncccc34)-c3nccn3C2C1=O (stereo not given) | 222 to 224 °C
CCNC(=O)c1c(OC(C)(C)C)ccc2ccccc12 | 126 to 127 °C
C=CCC1(O)CCC2C3CCC4=CC(=O)CCC4C3CCC21CCC (stereo not given) | 135 to 137 °C
COc1ccc(N2CCN(Cc3cn(C)c4ncccc34)CC2)cc1 | 92 to 94 °C
CCOC(=O)C(C)=Cc1cn(Cc2ccc(C(=O)OC(C)(C)C)cc2OC)c2cc(C(=O)NCC3CCCC3)ccc12 | 118 to 120 °C
O=[N+]([O-])c1cc2c(Nc3cccc(Cl)c3)ncnc2cc1F | 223 to 225 °C
CC12CC(=O)C3C(CCC4CC(O)CCC43C)C1CCC2C(=O)CSc1ccccn1 (stereo not given) | 184 °C
COc1nc(C)cnc1NS(=O)(=O)c1ccccc1-c1ccc(CC(C)C)c(N)c1 | 160 to 162 °C
COC(=O)c1cc(N)nc(-c2ccc(Cl)cc2F)n1 | 210 to 213 °C

SMILES | melting point
C[C@H](NC(=O)C[C@H](O)CC(=O)/C=C/c1c(C2CC2)nc2ccccc2c1-c1ccc(F)cc1)c1ccccc1 | 150 to 151 °C
O=C(CCl)Nc1ccc2ncnc(Nc3cccc(Br)c3)c2c1 | > 300 °C
O=C(COc1ccc(Cl)cc1Cl)Nc1ccnn1-c1c(Cl)cc(C(F)(F)F)cc1Cl | 167 to 180 °C
C[Si](C)(C)C#Cc1ccc(O)cc1 | 60 to 63.5 °C
CC(=O)NC[C@H]1CN(c2ccc(N3CC(C)(O[Si](C)(C)C(C)(C)C)C3)c(F)c2)C(=O)O1 | 137 to 138 °C
COCC1=C(C(=O)OC)C(c2ccccc2Cl)c2c[nH]nc2N1 (stereo not given) | 160 °C
CN(C)CCOc1ccc(-c2nnc(CSCCOc3ccccc3)o2)cc1 | 62 to 64 °C
COc1ccc(C2(c3ccc(OC)cc3)CN(c3ccc(S(C)(=O)=O)cc3)C(c3ccc(Cl)cc3)=N2)cc1 | 110 to 113 °C
Cc1c(CC(=O)O)c2cc(OCc3csc(-c4ccc(C(F)(F)F)cc4)n3)ccc2n1Cc1ccc(Cl)cc1 | 196 to 197 °C
O=S1(=O)CCN(Cc2ccc(Br)cn2)CC1 | 129 to 131 °C
Cc1cc(C)n(-c2ccc(NN)nn2)n1 | 142 to 143 °C
Nc1cc(-c2cc(Cl)cc(Cl)c2)cc2nc(-c3ccco3)nn12 | 257 to 260 °C
CN(C1CC(C)(C)Oc2ccc(O)cc21)S(C)(=O)=O (stereo not given) | 159 to 161 °C
O=C(CN1CCN(C(c2ccc(F)cc2)c2ccc(F)cc2)CC1)NC1(C(=O)O)Cc2ccc(-c3ccc(Cl)cc3)cc2C1 (stereo not given) | 184 °C
CCOCc1nc2c(N)nc3cccnc3c2n1CCCON=C1CCN(C(C)=O)CC1 | 162 to 163 °C
O=C(NCCC(Nc1ccccc1)c1ccccc1)c1ccccc1 (stereo not given) | 120 to 121 °C
CCOC(=O)c1ccc(OCCCN2C(=O)c3ccccc3C2=O)cc1 | 106 to 108 °C
CCOc1nn(Cc2ccc(Cl)cc2Cl)cc1CCCOc1nn(-c2ccccc2)cc1CCC(=O)O | 114 to 118 °C
Cc1ccc2c3c(ccc2n1)OCC(CNCC1CCc2[nH]c4cc(Cl)c(F)cc4c2C1)O3 (stereo not given) | 243 to 244 °C
O=C(O)CN1C(=O)C(=Cc2ccccc2C(=O)O)SC1=S | > 300 °C
CS(=O)(=O)c1ccc(Oc2cccc(C(=O)Nc3ccc(F)cc3)n2)cc1 | 134 to 135 °C
O=c1[nH]c2c(n(O)c1=O)C1=C(CCC(n3ccc(CN4CCN(c5ccc([N+](=O)[O-])cc5)CC4)c3)=C1)CC2 | > 230 °C
Nc1ccc(C2CCN(C(=O)C(F)(F)F)CC2)cc1 | 111 to 112 °C
O=C(O)C=CC(=O)NCCC(=O)O | 150 to 152 °C
Cn1ncc(C(=O)O)c1C(=O)Nc1ccn2nc(-c3ccccc3)nc2c1 | > 300 °C

SMILES | melting point
Cc1cc(-c2nc3ccc(CCN4CCOCC4)cc3c(=O)[nH]2)cc(C)n1 | 248 to 249 °C
COc1cc(C(=O)CS(C)(=O)=O)cc(OC)c1NC(C)=O | 193 to 195 °C
OCCc1ccc(OCCCCl)cc1 | 49 to 50 °C
CCn1ncc2c3[nH]c4ccnn4c(=O)c3cnc21 | > 300 °C
CN1CCOC(CC23CC(c4ccccc42)c2ccccc23)C1 (stereo not given) | 136 to 137 °C
CCOC(=O)C1=C(N)NC2=C(C(=O)CCC2)C1c1cccc(C#N)c1 (stereo not given) | 262 °C
CC(O)CCCCCCCc1ccc(O)c(O)c1 (stereo not given) | 58 to 61 °C
CC(C)Oc1c(-c2ccc(S(C)(=O)=O)cc2)cnn(Cc2ccccc2)c1=O | 109 to 111 °C
CCN(CC)CC1CN(Cc2cc(OC)c(OC)c(OC)c2)CCN1C(=O)C1=Cc2cc(OC)c(OC)cc2CCC1 (stereo not given) | 157 to 160 °C
OC1(CCc2ccc3[nH]cc(C4CCNCC4)c3c2)CCCC1 | 190 to 191 °C
CNc1cccc([N+](=O)[O-])c1N | 93 °C
Fc1ccc(Nc2nc(Cl)nc(NN=Cc3ccc(OC(F)(F)F)cc3)n2)cc1C(F)(F)F | 109 to 111 °C
CN(C)CCCCCCNc1nc2cc(Cl)c(Cl)cc2nc1-c1ccccn1 | 88 to 90 °C
O=C1CNc2cc([N+](=O)[O-])c(F)cc2O1 | 196 to 202 °C
Cc1ncoc1C(C)(O)c1ccsc1 (stereo not given) | 87 to 89 °C
COC(=O)C1CCc2cc(OC)ccc2C1=O (stereo not given) | 82 to 84 °C
Cc1oc(-c2ccccc2)nc1COc1cc(COc2nn(C)cc2CC(=O)O)on1 | 149 to 150 °C
OCC1CN(Cc2ccccc2)C(c2ccccc2)O1 (stereo not given) | 100 °C
O=C(O)Cc1ccc2nc(-c3ccccc3)ccc2c1 | 161 to 162 °C
NNc1nncc(-c2ccccc2)n1 | 144 to 146 °C
c1cc2[nH]ncc2cc1NC1CCN(CC2CCCCC2)CC1 | 179 to 180 °C
CCCc1cc(=O)oc2c3c(c4c(c12)OC(C)(C)C=C4)OC(C)C(C)C3O (single isomer, unassigned; (-)) | 52 to 54 °C
BrCc1ccccc1-c1cc(-c2ccccc2)on1 | 68 to 72 °C
COc1ccccc1OCCN(Cc1ccccc1)C(=O)CCc1c[nH]c2ccccc12 | 46.5 to 47.5 °C
Nc1sc2c(c1C(=O)c1ccc3ccccc3c1)CCC2 | 178 to 180 °C

Source: a melting point compilation (Tetko et al.; mined from patent text by program, amines drawn as free bases though some values may be those of a salt)
